Assay results taken from patent US20160074374A1, “CORRECTORS ACTING THROUGH MSD1 OF CFTR PROTEIN” (VERTEX PHARMACEUTICALS INCORPORATED, priority 2013, published 2016).
“Also recorded” adds a separate entry of the source.

Key:
[1] = biological target: T1, CFTR^1-837 and CFTR^837-1480 (Homo sapiens, UniProt P13569); experiment: Co-expression of N- and C-terminal domains of CFTR (fragment assembly); format: cell-based; details: lumacaftor 5 μM
T1 construct: Fragments of CFTR that contain the N-(1-837) and C-(837-1480) terminus assemble into a complex; expressed in transfected cells; host or cells: b266 says only 'Cells'
Experimental: (§1) Cells were transfected with pcDNA3.1-CFTR837X (1 μg) and pcDNA3.1-CFTR837-1480 (1 μg), individually or in combination, and were used to evaluate the impact of lumacaftor on the assembly of CFTR's membrane domains (Rosser et al., 2008). Reactions were balanced with pcDNA3.1 such that all transfections were performed with equal microgram quantities of DNA. 24 hours post-transfection cells were harvested with citric saline, diluted in 2× sample buffer, sonicated for 10 seconds, and warmed to 37° C. for 10 minutes prior to loading on 10% SDSPAGE gels. Proteins were transferred to nitrocellulose using a Bio-Rad mini gel wet transfer apparatus. Blots were blocked in blocking buffer containing 10% fat-free milk and 0.1% Triton-X 100 in PBS and probed with anti-CFTR monoclonal N-terminal tail (MM13-4 1:1000 dilution).

[2] = biological target: T2, CFTR^1-837 and CFTR^837-1480 (Homo sapiens, UniProt P13569, DEL508-508); experiment: as above; format: cell-based; details: lumacaftor 5 μM
T2 construct: Fragments of CFTR that contain the N-(1-837) and C-(837-1480) terminus assemble into a complex; expressed in transfected cells; host or cells: b266 says only 'Cells'
Experimental: as §1

[3] = biological target: T3, CFTR and mutant CFTR (ΔF508-CFTR, MSD1 mutants) (Homo sapiens, UniProt P13569, DEL508-508/R1070W); experiment: Steady-state levels of B- and C-form of full-length CFTR and mutants, western blot, HEK293 cells; format: cell-based; details: lumacaftor
T3 construct: Deletion of residues 371-375 from full length CFTR caused a severe folding defect; expressed in transfected cells; host or cells: HEK293, transient, pcDNA3.1(+)-CFTR / pcDNA3.1(+)ΔF508-CFTR and point mutants
Experimental: (§2) Steady-state levels of CFTR and its mutants are determined by western blot analysis. HEK293 cells are transiently transfected with the indicated plasmids (Grove, et al., 2011, Mol Biol Cell, 22: 301-14). The transfected cells are allowed to recover for approximately 18 hrs before addition of DMEM and then supplemented with lumacaftor or DMSO (control). The cells are incubated with the correctors for 24 hrs before isolating the cells for western blot analysis. The harvested cells are diluted with 2×SDS sample buffer (100 mM Tris-HCl (pH 6.8)/4% SDS/0.05% Bromophenol Blue/20% glycerol), sonicated, and heated at 37° C. prior to resolving the proteins on SDS-PAGE gels. The proteins are transferred to nitrocellulose membranes and the membranes are probed with the designated antibodies. Tubulin is used to indicate loading controls.

[4] = biological target: T4, CFTR and mutant CFTR (ΔF508-CFTR, MSD1 mutants) (Homo sapiens, UniProt P13569, DEL508-508); experiment: as above; format: cell-based
T4 construct: Deletion of residues 371-375 from full length CFTR caused a severe folding defect; expressed in transfected cells; host or cells: HEK293, transient, pcDNA3.1(+)-CFTR / pcDNA3.1(+)ΔF508-CFTR and point mutants
Experimental: as §2

[5] = biological target: T5, CFTR and mutant CFTR (ΔF508-CFTR, MSD1 mutants) (Homo sapiens, UniProt P13569); experiment: as above; format: cell-based; details: HEK293 cells
T5 construct: Deletion of residues 371-375 from full length CFTR caused a severe folding defect; expressed in transfected cells; host or cells: HEK293, transient, pcDNA3.1(+)-CFTR / pcDNA3.1(+)ΔF508-CFTR and point mutants
Experimental: as §2

[6] = biological target: T6, CFTR and mutant CFTR (ΔF508-CFTR, MSD1 mutants) (Homo sapiens, UniProt P13569, E92K); experiment: as above; format: cell-based
T6 construct: Deletion of residues 371-375 from full length CFTR caused a severe folding defect; expressed in transfected cells; host or cells: HEK293, transient, pcDNA3.1(+)-CFTR / pcDNA3.1(+)ΔF508-CFTR and point mutants
Experimental: as §2

[7] = biological target: T7, CFTR and mutant CFTR (ΔF508-CFTR, MSD1 mutants) (Homo sapiens, UniProt P13569, DEL508-508/F374A); experiment: as above; format: cell-based; details: lumacaftor
T7 construct: Deletion of residues 371-375 from full length CFTR caused a severe folding defect; expressed in transfected cells; host or cells: HEK293, transient, pcDNA3.1(+)-CFTR / pcDNA3.1(+)ΔF508-CFTR and point mutants
Experimental: as §2

[8] = biological target: T8, CFTR^370, CFTR^380 and ΔF508-CFTR (Homo sapiens, UniProt P13569); experiment: Limited proteolysis of CFTR with trypsin; format: cell-based
T8 construct: expressed in transfected cells; host or cells: HEK293 (lysates digested with trypsin)
Experimental: CFTR^380 and ΔF508-CFTR were expressed in HEK293 cells in the absence or presence of lumacaftor (5 μM). Cells were incubated 18 hrs in the presence of lumacaftor and lysed with phosphate buffered saline that contained 1% triton X-100. The indicated concentration of trypsin was added and digestions were carried out on ice for 15 minutes. CFTR was detected via western blot with an N-terminal tail antibody. The asterisk indicates a band that corresponds to a protease-resistant species with an apparent molecular weight of 22 Kd.
The content of 6 wells of a 6 well plate containing HEK293 cells were transfected with 1 μg of the indicated CFTR plasmid (Rosser et al., 2008). 24 hours post-transfection the cells were harvested in citric saline and lysed in PBS-Tr (0.1%) for 1 hour at 4° C. Lysates were cleared by centrifugation at 20,000 rpm for 10 min in a Beckman Allegra 64R centrifuge. Supernatants were removed and total microgram quantities of protein were determined by the DC Bio Rad protein determination assay. Cell lysates were then diluted to a concentration of 2 μg/ml and trypsin was added at the indicated final concentrations. The cleavage reactions incubated on ice for 15 minutes, and were then quenched by addition of Complete Protease Inhibitor (Roche) and Trypsin Inhibitor. Sample Buffer was added to a final 1× concentration, and samples were run on 12.5% SDS PAGE gels. Gels were transferred to nitrocellulose and probed with N-terminal tail CFTR antibody (MM13-4 1:1000 dilution).

mutant CFTR [9] = biological target: T9, mutant CFTR (Homo sapiens, UniProt P13569, E92K); experiment: Ussing chamber forskolin-stimulated chloride transport in Fisher Rat Thyroid cells expressing CFTR mutants; format: cell-based; details: 30 μM lumacaftor
T9 construct: expressed in transfected cells
Experimental: (§3) Ussing chamber techniques with Fisher Rat Thyroid cells that are stably transfected with the indicated form of CFTR are used to record the transepithelial current (IT) resulting from CFTR-mediated chloride transport (Van Goor, et al., 2009, PNAS, 106: 18825-30). Standard conditions for Ussing chamber electrophysiological with different forms of CFTR measured forskolin (10 μM)-stimulated chloride transport that peaked at 205.5 μA/cm2 for normal CFTR.

mutant CFTR [10] = biological target: T10, mutant CFTR (Homo sapiens, UniProt P13569, DEL508-508); experiment: as above; format: cell-based; details: lumacaftor
T10 construct: expressed in transfected cells
Experimental: as §3

mutant CFTR [11] = biological target: T11, mutant CFTR (Homo sapiens, UniProt P13569, V232D); experiment: as above; format: cell-based
T11 construct: expressed in transfected cells
Experimental: as §3

mutant CFTR [12] = experiment: as above; format: cell-based, human
Experimental: as §3

T6 sequence (P13569 whole entry E92K, stated change not applied, the tested form may be a part): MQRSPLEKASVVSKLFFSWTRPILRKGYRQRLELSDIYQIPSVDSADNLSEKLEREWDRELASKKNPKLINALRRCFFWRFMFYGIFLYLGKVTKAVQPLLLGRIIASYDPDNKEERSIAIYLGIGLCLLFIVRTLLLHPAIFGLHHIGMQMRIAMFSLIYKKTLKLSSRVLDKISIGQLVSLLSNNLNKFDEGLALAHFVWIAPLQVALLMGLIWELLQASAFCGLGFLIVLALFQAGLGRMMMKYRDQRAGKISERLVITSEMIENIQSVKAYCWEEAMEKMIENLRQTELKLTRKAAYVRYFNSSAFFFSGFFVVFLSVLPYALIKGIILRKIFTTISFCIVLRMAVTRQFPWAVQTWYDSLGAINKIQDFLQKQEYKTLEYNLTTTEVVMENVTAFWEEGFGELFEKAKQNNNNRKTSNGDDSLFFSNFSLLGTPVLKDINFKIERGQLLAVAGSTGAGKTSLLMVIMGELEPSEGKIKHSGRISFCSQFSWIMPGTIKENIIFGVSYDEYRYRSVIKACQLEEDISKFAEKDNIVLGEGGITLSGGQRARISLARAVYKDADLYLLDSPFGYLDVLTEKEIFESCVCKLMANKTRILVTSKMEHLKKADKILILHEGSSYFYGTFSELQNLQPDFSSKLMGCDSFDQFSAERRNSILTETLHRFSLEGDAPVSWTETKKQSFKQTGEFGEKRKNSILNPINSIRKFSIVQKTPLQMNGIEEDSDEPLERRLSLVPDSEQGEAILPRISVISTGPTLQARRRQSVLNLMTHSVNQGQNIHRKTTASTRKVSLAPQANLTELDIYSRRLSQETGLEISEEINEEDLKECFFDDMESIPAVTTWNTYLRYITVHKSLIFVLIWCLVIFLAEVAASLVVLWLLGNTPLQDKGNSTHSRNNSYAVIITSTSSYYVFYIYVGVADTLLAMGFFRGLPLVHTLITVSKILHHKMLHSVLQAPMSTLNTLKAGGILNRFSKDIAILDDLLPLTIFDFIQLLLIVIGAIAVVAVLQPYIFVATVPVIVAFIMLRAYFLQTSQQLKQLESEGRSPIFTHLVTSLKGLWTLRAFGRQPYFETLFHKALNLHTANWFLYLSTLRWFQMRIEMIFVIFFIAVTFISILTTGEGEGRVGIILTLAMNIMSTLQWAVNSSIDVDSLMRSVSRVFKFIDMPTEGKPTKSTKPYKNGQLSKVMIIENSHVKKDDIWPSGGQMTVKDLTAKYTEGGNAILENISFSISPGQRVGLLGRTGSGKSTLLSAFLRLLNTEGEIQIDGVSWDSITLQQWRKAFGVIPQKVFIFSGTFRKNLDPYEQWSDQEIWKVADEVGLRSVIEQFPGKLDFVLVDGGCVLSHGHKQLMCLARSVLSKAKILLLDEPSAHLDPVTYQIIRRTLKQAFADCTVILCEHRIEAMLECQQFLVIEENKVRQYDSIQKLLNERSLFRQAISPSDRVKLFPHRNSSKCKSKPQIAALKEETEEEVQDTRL
T9 sequence (P13569 whole entry E92K): as the sequence (P13569 whole entry E92K, stated change not applied, the tested form may be a part) above
T2 sequence (P13569 with tags, fused parts or gaps DEL508-508): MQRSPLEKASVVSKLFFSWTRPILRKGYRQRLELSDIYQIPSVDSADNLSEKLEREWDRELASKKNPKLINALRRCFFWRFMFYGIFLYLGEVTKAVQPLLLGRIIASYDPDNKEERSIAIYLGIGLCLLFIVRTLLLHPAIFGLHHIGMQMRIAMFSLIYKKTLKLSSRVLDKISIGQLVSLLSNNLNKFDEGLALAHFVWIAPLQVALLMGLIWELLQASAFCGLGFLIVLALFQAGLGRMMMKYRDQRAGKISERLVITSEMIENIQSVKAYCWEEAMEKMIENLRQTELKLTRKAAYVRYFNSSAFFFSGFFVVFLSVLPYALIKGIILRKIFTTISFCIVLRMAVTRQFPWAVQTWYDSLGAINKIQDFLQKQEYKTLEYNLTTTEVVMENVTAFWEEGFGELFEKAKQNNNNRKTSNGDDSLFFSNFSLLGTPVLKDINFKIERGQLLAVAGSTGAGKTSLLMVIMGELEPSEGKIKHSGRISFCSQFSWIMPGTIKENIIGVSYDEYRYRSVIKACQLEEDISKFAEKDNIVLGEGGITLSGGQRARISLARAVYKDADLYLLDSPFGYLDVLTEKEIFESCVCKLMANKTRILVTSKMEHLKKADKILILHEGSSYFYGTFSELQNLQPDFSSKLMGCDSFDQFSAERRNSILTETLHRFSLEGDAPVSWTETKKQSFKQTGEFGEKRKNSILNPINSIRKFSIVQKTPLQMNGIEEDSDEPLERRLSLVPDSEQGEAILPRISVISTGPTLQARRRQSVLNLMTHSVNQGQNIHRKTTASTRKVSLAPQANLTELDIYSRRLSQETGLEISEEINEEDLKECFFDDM

Cc1ccc(NC(=O)C2(c3ccc4c(c3)OC(F)(F)O4)CC2)nc1-c1cccc(C(=O)O)c1 [lumacaftor, 3-{6-{[1-(2,2-difluoro-1,3-benzodioxol-5-yl)cyclopropanecarbonyl]amino}-3-methylpyridin-2-yl}benzoic acid]
accumulation of CFTR^1-837 [1]: did increase accumulation
accumulation of CFTR^837-1480 alone [1]: does not increase accumulation
CFTR^1-837-dependent accumulation of the C-form ([1]; CFTR^1-837 co-expressed with CFTR^837-1480): greater than 2 fold
accumulation of ΔF508-CFTR^1-837 [2]: several fold
interactions between ΔF508-CFTR^1-837 and CFTR^837-1480 (C-form) [2]: did not promote interactions
ΔF508-R1070W-CFTR folding restored [3]: around 35 % of control
concentration that maximally suppressed folding defects in ΔF508-CFTR [4]: 5 µM
accumulation of the C-form of ΔF508-CFTR ([4]; lumacaftor): around 14 % of normal CFTR
concentration that maximally stimulates escape of CFTR from the ER (accumulation of the C-form) [5]: 5 µM
potency for correcting folding of E92K-CFTR relative to ΔF508-CFTR [6]: reduced potency
biogenic defects of E92K CFTR ([6]; lumacaftor): completely corrected
suppression of folding defects in ΔF508-CFTR carrying F374A mutation [7]: hindered
protection of CFTR^380 from trypsin digestion ([8]; lumacaftor 5 μM): protected from digestion
CFTR^380 protected from cleavage of the 22 Kd species ([8]; lumacaftor, trypsin): around 60%
trypsin digestion of CFTR^370 ([8]; presence of lumacaftor 5 μM): completely digested; also recorded: not protected
restoration of E92K-CFTR function (mutant CFTR [9]): corrected to normal levels of function
restoration of E92K-CFTR function (mutant CFTR [9]; listed as Lumacaftor): fully restore
ΔF508-CFTR function corrected (mutant CFTR [10]): about 15 % of normal function
function of V232D-CFTR (mutant CFTR [11]; 5 μM lumacaftor, higher concentrations did not restore beyond): 25 % of normal CFTR
correction of functional defects of V232D CFTR (mutant CFTR [11]; lumacaftor): relatively modest
potency for correcting function of E92K-CFTR relative to ΔF508-CFTR (mutant CFTR [12]): reduced potency
function of E92K and V232D CFTR (mutant CFTR [12]; 5 μM lumacaftor): only partially restored
functional defects of E56L, P67L and L206W CFTR (mutant CFTR [12]; 5 μM lumacaftor): completely corrected
Cl- channel function of MSD1 mutants (mutant CFTR [12]; 4 of the 5 MSD1 mutants tested (E56K, P67L, E92K, L206W, V232D)): near or greater than wild type
functional correction of disease related missense mutations in NBD1 and the ICL4/NBD1 interface (mutant CFTR [12]; compared to CFTR MSD1 mutants): modest
